In patent publication US12247018B2, “Aryl-n-aryl derivatives for treating a RNA virus infection” (ABIVAX, priority 2018, dated 2025):

These compounds were tested on RSV A2 (assay: RSV inhibition (cytopathic effect) in HEp-2 cells using Viral ToxGlo assay). Conditions: human respiratory syncytial virus; RSV A2, HEp-2 cells, MOI 0.5, 72 h p.i.
Type: cell-based
Protocol: Protocol for Screening Antiviral Compounds for RSV Inhibition and Cytotoxicity Using Viral ToxGlo Assay
HEp-2 cells were maintained in Eagle's minimum essential medium (EMEM) with Earle's BSS adjusted to contain 2 mM L-glutamine, 10% fetal bovine serum, 100 U/ml penicillin and 100 μg/ml streptomycin. For the purposes of the screening assay they were grown to 90% confluency, trypsinized and recovered. The trypsin was neutralised with cell culture media and cells were centrifuged at 150×g for 5 minutes before discarding the supernatant and resuspending cell pellet in assay media (EMEM with Earle's BSS adjusted to contain 2 mM L-glutamine, 2% fetal bovine serum and 100 U/ml penicillin and 100 μg/ml streptomycin). The cells were seeded into white clear-bottomed cell culture plates at a density of 1.5×10^4 cells/well in 50 μl and 4×10^3 cells/well in 25 μl for 96 well plates and 384 well plates respectively. For the media/background control column assay media only was added. Cell plates were placed in a humid chamber and incubated overnight at 37° C./5% CO2. After overnight incubation cells were checked for confluency and healthy appearance.
Test articles were made up at 10× test concentration in a maximum DMSO concentration of 10% (final assay concentration maximal 1% DMSO) and added to the cell plates in volumes of 10 μl for 96 well plates and 5 μl for 384 well plates. For cell control and virus control wells the test article solvent only was added. Virus or assay media for cytotoxicity test wells and media/cell control wells was added immediately after test articles at an MOI of 0.5, 40 or 20 μl for 96 and 384 well plates respectively. Virus suspension was prepared by thawing RSV A2 frozen stocks and diluting to the required concentration of plaque forming units in assay media on ice.
Cell plates were further incubated inside a humid chamber for 72 h p.i at 37° C./5% CO2. After the incubation period cells were observed under the microscope to check for characteristic cytopathic effect in virus control wells and healthy cells in the cell control wells. After plates were adjusted to room temperature 20/40 μl Viral ToxGlo (Promega) was added to each well of the 384/96 well cell plates. Plates were incubated at room temperature, protected from light on a plate rocker for 20 minutes before measuring the luminescence on a spectrophotometer (Biotek Synergy HTX).

Compared with `O=C1CCN/C(=N\C(=O)c2ccc(Nc3cccc(C(=O)N4CCOCC4)c3Cl)c(C3CC3)c2)N1` [compound 95, 4-{[2-chloro-3-(morpholine-4-carbonyl)phenyl]amino}-3-cyclopropyl-N-[(2E)-4-oxo-1,3-diazinan-2-ylidene]benzamide], `CC1CN(C(=O)c2cccc(Nc3ccc(C(=O)/N=C4\NCCC(=O)N4)cc3C3CC3)c2Cl)CCO1` (stereo not drawn) [compound 92, 4-{[2-chloro-3-(2-methylmorpholine-4-carbonyl)phenyl]amino}-3-cyclopropyl-N-[(2E)-4-oxo-1,3-diazinan-2-ylidene]benzamide] is 9.5-fold lower in EC50: 19 nM for the first, 2 nM for the second. The second is the more potent here.

Compared with `O=C(N=C1NCCCN1)c1ccc(Nc2cccc(C(O)CCCC3CCCCC3)c2)c(C2CC2)c1` (stereo not drawn) [compound 103, 4-{[3-(4-cyclohexyl-1-hydroxybutyl)phenyl]amino}-3-cyclopropyl-N-(1,3-diazinan-2-ylidene)benzamide], `O=C(N=C1NCCCN1)c1ccc(Nc2cccc(OCCCC3CCCCC3)c2)c(C2CC2)c1` [compound 115, 4-{[3-(3-cyclohexylpropoxy)phenyl]amino}-3-cyclopropyl-N-(1,3-diazinan-2-ylidene)benzamide] is 2.5-fold higher in EC50: 44 nM for the first, 110 nM for the second.

`CC1(C)CN1C(=O)c1cccc(Nc2ccc(C(=O)N=C3NCCCN3)cc2C2CC2)c1` [compound 154, 3-cyclopropyl-N-(1,3-diazinan-2-ylidene)-4-{[3-(2,2-dimethylaziridine-1-carbonyl)phenyl]amino}benzamide] and `CC1CN1C(=O)c1cccc(Nc2ccc(C(=O)N=C3NCCCN3)cc2C2CC2)c1` (stereo not drawn) [compound 162, 3-cyclopropyl-N-(1,3-diazinan-2-ylidene)-4-{[3-(2-methylaziridine-1-carbonyl)phenyl]amino}benzamide] are within 1.5-fold of each other in EC50: 917 nM for the first, 1370 nM for the second.

First: O=C1CCN/C(=N\C(=O)c2ccc(Nc3cccc(OCC4CCOCC4)c3)c(C3CC3)c2)N1 [compound 146, 3-cyclopropyl-4-({3-[(oxan-4-yl)methoxy]phenyl}amino)-N-[(2E)-4-oxo-1,3-diazinan-2-ylidene]benzamide]
Second: O=C1CCN/C(=N\C(=O)c2ccc(Nc3cccc(OCC4CCCOC4)c3)c(C3CC3)c2)N1 (stereo not drawn) [compound 134, 3-cyclopropyl-4-({3-[(oxan-3-yl)methoxy]phenyl}amino)-N-[(2E)-4-oxo-1,3-diazinan-2-ylidene]benzamide]
The EC50 of the first is 1.7-fold higher: 439 nM for the first, 265 nM for the second.

First: O=C1CCN/C(=N\C(=O)c2ccc(Nc3cccc(OCC4COCCO4)c3)c(C3CC3)c2)N1 (stereo not drawn) [compound 161, 3-cyclopropyl-4-({3-[(1,4-dioxan-2-yl)methoxy]phenyl}amino)-N-[(2E)-4-oxo-1,3-diazinan-2-ylidene]benzamide]
Second: O=C1CCN/C(=N\C(=O)c2ccc(Nc3cccc(OCCCC4CCCCC4)c3)c(C3CC3)c2)N1 [compound 97, 4-{[3-(3-cyclohexylpropoxy)phenyl]amino}-3-cyclopropyl-N-[(2E)-4-oxo-1,3-diazinan-2-ylidene]benzamide]
The EC50 of the first is 52-fold higher: 1310 nM for the first, 25 nM for the second. The second is the more potent here.

`O=C(N=C1NCCCN1)c1ccc(Nc2cccc(-c3nnn(CCCC4CCCCC4)n3)c2)c(C2CC2)c1` [compound 149, 4-({3-[2-(3-cyclohexylpropyl)-2H-1,2,3,4-tetrazol-5-yl]phenyl}amino)-3-cyclopropyl-N-(1,3-diazinan-2-ylidene)benzamide] and `O=C(N=C1NCCCN1)c1ccc(Nc2cccc(OCCCCC3CCCCC3)c2)c(C2CC2)c1` [compound 140, 4-{[3-(4-cyclohexylbutoxy)phenyl]amino}-3-cyclopropyl-N-(1,3-diazinan-2-ylidene)benzamide] are within 1.5-fold of each other in EC50: 494 nM for the first, 368 nM for the second.

Compared with `O=C(N=C1NCCCN1)c1ccc(Nc2cccc(C(=O)NC3CC3)c2)c(C2CC2)c1` [compound 114, 3-cyclopropyl-4-{[3-(cyclopropylcarbamoyl)phenyl]amino}-N-(1,3-diazinan-2-ylidene)benzamide], `CC1(NC(=O)c2cccc(Nc3ccc(C(=O)N=C4NCCCN4)cc3C3CC3)c2)CC1` [compound 99, 3-cyclopropyl-N-(1,3-diazinan-2-ylidene)-4-({3-[(1-methylcyclopropyl)carbamoyl]phenyl}amino)benzamide] is 3.2-fold lower in EC50: 110 nM for the first, 34 nM for the second.

First: O=C(N=C1NCCCN1)c1ccc(Nc2cccc(-n3cc(CC4CCCCC4)nn3)c2)c(C2CC2)c1 [compound 119, 4-({3-[4-(cyclohexylmethyl)-1H-1,2,3-triazol-1-yl]phenyl}amino)-3-cyclopropyl-N-(1,3-diazinan-2-ylidene)benzamide]
Second: O=C(N=C1NCCCN1)c1ccc(Nc2cccc(OC3CCC3)c2)c(C2CC2)c1 [compound 129, 4-[(3-cyclobutoxyphenyl)amino]-3-cyclopropyl-N-(1,3-diazinan-2-ylidene)benzamide]
The EC50 of the first is 1.7-fold lower: 130 nM for the first, 223 nM for the second. The first is the more potent here.

First: O=C(N=C1NCCCN1)c1ccc(Nc2cccc(OC3COC3)c2)c(C2CC2)c1 [compound 144, 3-cyclopropyl-N-(1,3-diazinan-2-ylidene)-4-{[3-(oxetan-3-yloxy)phenyl]amino}benzamide]
Second: CC(C)CCCOc1cccc(Nc2ccc(C(=O)N=C3NCCCN3)cc2C2CC2)c1 [compound 132, 3-cyclopropyl-N-(1,3-diazinan-2-ylidene)-4-({3-[(4-methylpentyl)oxy]phenyl}amino)benzamide]
The EC50 of the first is 1.6-fold higher: 413 nM for the first, 259 nM for the second. The second is the more potent here.

Compared with `O=C1CCN/C(=N\C(=O)c2ccc(Nc3cccc(C(=O)N4CCOCC4)c3)c(C3CC3)c2)N1` [compound 164, 3-cyclopropyl-4-{[3-(morpholine-4-carbonyl)phenyl]amino}-N-[(2E)-4-oxo-1,3-diazinan-2-ylidene]benzamide], `O=C1CCN/C(=N\C(=O)c2ccc(Nc3cccc(C(=O)NC4CC4)c3)c(C3CC3)c2)N1` [compound 145, 3-cyclopropyl-4-{[3-(cyclopropylcarbamoyl)phenyl]amino}-N-[(2E)-4-oxo-1,3-diazinan-2-ylidene]benzamide] is 3.6-fold lower in EC50: 1500 nM for the first, 421 nM for the second.

Compared with `CC1(NC(=O)c2cccc(Nc3ccc(C(=O)/N=C4\NCCC(=O)N4)cc3C3CC3)c2)CC1` [compound 121, 3-cyclopropyl-4-({3-[(1-methylcyclopropyl)carbamoyl]phenyl}amino)-N-[(2E)-4-oxo-1,3-diazinan-2-ylidene]benzamide], `CC(C)CNC(=O)c1cccc(Nc2ccc(C(=O)N=C3NCCCN3)cc2C2CC2)c1` [compound 131, 3-cyclopropyl-N-(1,3-diazinan-2-ylidene)-4-({3-[(2-methylpropyl)carbamoyl]phenyl}amino)benzamide] is 1.8-fold higher in EC50: 139 nM for the first, 246 nM for the second. The first is the more potent here.

`CC(C)NC(=O)c1cccc(Nc2ccc(C(=O)/N=C3\NCCC(=O)N3)cc2C(C)(C)C)c1` [compound 98, 3-tert-butyl-N-[(2E)-4-oxo-1,3-diazinan-2-ylidene]-4-({3-[(propan-2-yl)carbamoyl]phenyl}amino)benzamide] and `CC(C)NC(=O)c1ccccc1Nc1ccc(C(=O)/N=C2\NCCC(=O)N2)cc1C(C)(C)C` [compound 100, 3-tert-butyl-N-[(2E)-4-oxo-1,3-diazinan-2-ylidene]-4-({2-[(propan-2-yl)carbamoyl]phenyl}amino)benzamide] are within 1.5-fold of each other in EC50: 33 nM for the first, 37 nM for the second.

`O=C(N=C1NCCCN1)c1ccc(Nc2cccc(C(=O)NCC(F)(F)F)c2)c(C2CC2)c1` [compound 133, 3-cyclopropyl-N-(1,3-diazinan-2-ylidene)-4-({3-[(2,2,2-trifluoroethyl)carbamoyl]phenyl}amino)benzamide] and `CC(C)OCCOc1cccc(Nc2ccc(C(=O)N=C3NCCCN3)cc2C2CC2)c1` [compound 139, 3-cyclopropyl-N-(1,3-diazinan-2-ylidene)-4-({3-[2-(propan-2-yloxy)ethoxy]phenyl}amino)benzamide] are within 1.5-fold of each other in EC50: 261 nM for the first, 340 nM for the second.

Going from `Cc1cc(C(=O)N=C2NCCCN2)ccc1Nc1cccc(OCCCC2CCCCC2)c1` [compound 156, 4-{[3-(3-cyclohexylpropoxy)phenyl]amino}-N-(1,3-diazinan-2-ylidene)-3-methylbenzamide] to `Cc1c(Nc2ccc(C(=O)N=C3NCCCN3)cc2C2CC2)cccc1C(=O)NC1(C#N)CC1` [compound 165, 4-({3-[(1-cyanocyclopropyl)carbamoyl]-2-methylphenyl}amino)-3-cyclopropyl-N-(1,3-diazinan-2-ylidene)benzamide], the EC50 rises from 966 nM to 1760 nM (1.8-fold). The first is the more potent here.

Compared with `CC(C)NC(=O)c1cccc(Nc2ccc(C(=O)/N=C3\NCCCN3C)cc2C2CC2)c1` [compound 108, 3-cyclopropyl-N-[(2E)-1-methyl-1,3-diazinan-2-ylidene]-4-({3-[(propan-2-yl)carbamoyl]phenyl}amino)benzamide], `CC(C)CCS(=O)(=O)Nc1cccc(Nc2ccc(C(=O)/N=C3\NCCC(=O)N3)cc2C(C)(C)C)c1` [compound 94, 3-tert-butyl-4-{[3-(3-methylbutanesulfonamido)phenyl]amino}-N-[(2E)-4-oxo-1,3-diazinan-2-ylidene]benzamide] is 4.5-fold lower in EC50: 77 nM for the first, 17 nM for the second.
